Assays:
[1] = molecular target: T1, METTL10 (Homo sapiens, UniProt Q5JPI9); assay: MTase-Glo in vitro methylation assay, METTL10-mediated PIAS3 methylation; format: biochemical
T1 construct: His; made in house; host or cells: E. coli BL21
Procedure: For the in vitro methylation assay, His‐METTL10 (1 µg) was incubated with recombinant human Histone H4 protein (20 ng; Abcam, ab198115) or GST‐PIAS3 (100 ng) of in methylation reaction buffer (50 mM Tris‐HCl (pH 8.0), 20 mM KCl, 5 mM DTT, 4 mM EDTA) containing 20 µM S‐(5′‐adenosyl)‐L‐methionine chloride dihydrochloride (SAM) at 37 °C for 1 h. The reaction was terminated by boiling the samples in SDS‐PAGE loading buffer, and the products were analyzed by immunoblotting.
To identify METTL10 inhibitors, an in‐silico screening was first conducted on an in‐house compound library comprising approximately 6000 structurally diverse molecules. Molecular docking simulations with the METTL10 protein identified 111 candidate compounds for further analysis. The methyltransferase activity of these candidates was assessed using the MTase‐Glo Methyltransferase Assay (Promega, V7601) according to the manufacturer's protocol. Briefly, the candidate compounds were preincubated with His‐METTL10 protein (1 µg) at 37 °C for 1 h in a methylation reaction buffer (50 mM Tris‐HCl (pH 8.0), 20 mM KCl, 5 mM DTT, 4 mM EDTA, and 20 µM SAM), followed by the addition of either the Histone H4 or PIAS3 peptide substrate for an additional 1 h. The reaction was then subjected to MTase‐Glo reagent buffer for 30 min, followed by MTase‐Glo detection buffer for another 30 min. Luminescence was measured using a luminometer (Promega), and IC50 values were calculated using GraphPad Prism 8 software.

[2] = system: MITF ubiquitination mediated by PIAS3 and METTL10; assay: In vitro ubiquitination assay with purified Flag-MITF; format: biochemical; settings: 20 µM
Procedure: For the in vitro Sumoylation assay, bacteria‐purified GST‐PIAS3 and HEK293T‐purified MITF were incubated with SAE1, UBC9 in reaction buffer according to the manufacturer's instructions at 37 °C for 2 h. For the in vitro ubiquitination assay, purified His‐METTL10, GST‐PIAS3, Flag‐MITF, SAE1, and UBC9 proteins were incubated with ubiquitin, UBE1, UBE2B, and RNF4 in reaction buffer according to the manufacturer's instructions at 37 °C for 2 h. All the samples were subjected to immunoprecipitation and subsequently boiled in SDS‐PAGE loading buffer for immunoblotting.

[3] = system: ICR mice; assay: Acute toxicity at 125 mg/kg, 7-day observation and histopathology; format: in vivo
Procedure: For the acute toxic study, 8‐week‐old ICR mice (n = 6 per group) were administered a single intraperitoneal injection of LZQ‐02‐023‐01 at escalating doses. A vehicle‐treated group served as control. Survival was monitored continuously for 24 h postadministration. Additionally, another cohort of ICR mice (n = 5 per group) received a single intraperitoneal dose of LZQ‐02‐023‐01 at 125 mg/kg and were subsequently monitored daily for 7 days for clinical signs of toxicity, behavioral changes, body weight fluctuations, and mortality. At the conclusion of the observation period, animals were euthanized and subjected to a comprehensive gross necropsy. Major organs, including the liver, kidney, heart, lung, and spleen, were harvested for histopathological examination. For the chronic toxic study, 8‐week‐old ICR mice (n = 5 per group) received daily intraperitoneal injections of LZQ‐02‐023‐01 at a therapeutic dose of 40 mg/kg for 14 consecutive days. A vehicle‐treated group was included as a control. Throughout the treatment period, animals were monitored daily for clinical signs of toxicity and weighed every 2 days. At study termination, blood samples were collected for hematological and biochemical analyses. […]

T1 sequence (Q5JPI9 1-291 isoform Q5JPI9-1): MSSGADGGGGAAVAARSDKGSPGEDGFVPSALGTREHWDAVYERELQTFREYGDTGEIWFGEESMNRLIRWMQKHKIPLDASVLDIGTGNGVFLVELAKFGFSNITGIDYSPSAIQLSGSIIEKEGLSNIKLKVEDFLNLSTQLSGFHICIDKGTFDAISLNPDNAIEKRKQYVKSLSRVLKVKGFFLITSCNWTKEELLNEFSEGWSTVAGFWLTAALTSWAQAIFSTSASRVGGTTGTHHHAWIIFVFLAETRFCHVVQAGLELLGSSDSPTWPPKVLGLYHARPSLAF

## Cc1ccc(Nc2ncc3c(n2)N(C)C(=O)N(c2cccc(N)c2)C3)cn1 [LZQ-02-023-01, Three‐(3‐aminophenyl)‐1‐methyl‐7‐((6‐methylpyridin‐3‐yl)amino)‐3,4‐dihydropyrimido [4,5‐d] pyrimidin‐2 (1H)‐one]
[1]; METTL10 activity toward GST-PIAS3
  Structure-activity relationship, rank among structural analogs: most potent inhibitor among its structural analogs
[1]; METTL10 activity toward PIAS3
  Rank of potency among the 22 hit compounds: strongest potency
[1]; MTase-Glo, bacteria-purified GST-PIAS3 substrate, read-out: IC50, inhibition of METTL10 activity toward PIAS3
  IC50: 11.8 µM
[2]
  PIAS3-mediated ubiquitination and degradation of MITF, cell-free system: significantly promoted
[3]; 7 days
  Signs of overt toxicity: did not observe any signs of overt toxicity
[3]; end of 7-day period
  Histopathological analysis of major organs: no apparent tissue damage

— publication PMC12752606, “METTL10‐Mediated PIAS3 Methylation Links Purine Metabolism to Gastric Cancer Progression” (Advanced Science, 2025)
